Results taken from patent publication US12370235B2, “Synthetic, non-natural antimicrobial peptides inspired by Staphylococcus auricularis delta toxin” (University of Saskatchewan, priority 2021, dated 2025).
Ends that are not written are not given here.

Tests used:
S. aureus ATCC 29213 = assay: MIC, broth dilution; assay type: cell-based, Staphylococcus aureus; conditions: Table 5; STIP3 variants, highest concentration 100 μg/mL
Summary of the method: (§1)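 Peptides (95% purity) were serially diluted 2-fold and mixed with bacteria diluted to OD 6×10^−4 in cation-adjusted Mueller Hinton broth. Standing cultures were incubated overnight at 37° C. MIC was the lowest peptide concentration with no observed growth.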

[1] = test system: S. aureus ATCC 33592 (MRSA SCCmec type III); assay: MIC, broth dilution; assay type: cell-based, Staphylococcus aureus; conditions: Table 5; STIP3 variants, highest concentration 100 μg/mL
Summary of the method: as §1

[2] = test system: S. aureus ATCC BAA-1683 (MRSA SCCmec type IV); assay: MIC, broth dilution; assay type: cell-based, Staphylococcus aureus; conditions: Table 5; STIP3 variants, highest concentration 100 μg/mL
Summary of the method: as §1

[3] = test system: S. aureus ATCC BAA-2094 (MRSA SCCmec type V); assay: MIC, broth dilution; assay type: cell-based, Staphylococcus aureus; conditions: Table 5; STIP3 variants, highest concentration 100 μg/mL
Summary of the method: as §1

[4] = test system: S. aureus ATCC BAA-2313 (MRSA SCCmec type XI); assay: MIC, broth dilution; assay type: cell-based, Staphylococcus aureus; conditions: Table 5; STIP3 variants, highest concentration 100 μg/mL
Summary of the method: as §1

[5] = test system: S. aureus ATCC BAA-41 (MRSA SCCmec type II); assay: MIC, broth dilution; assay type: cell-based, Staphylococcus aureus; conditions: Table 5; STIP3 variants, highest concentration 100 μg/mL
Summary of the method: as §1

[6] = test system: S. aureus ATCC BAA-42 (MRSA SCCmec type VI); assay: MIC, broth dilution; assay type: cell-based, Staphylococcus aureus; conditions: Table 5; STIP3 variants, highest concentration 100 μg/mL
Summary of the method: as §1

[7] = test system: S. aureus ATCC BAA-44 (MRSA SCCmec type I); assay: MIC, broth dilution; assay type: cell-based, Staphylococcus aureus; conditions: Table 5; STIP3 variants, highest concentration 100 μg/mL
Summary of the method: as §1

[8] = test system: Mannheimia haemolytica ATCC 33393; assay: MIC, broth dilution; assay type: cell-based; conditions: Table 11; highest concentration 25 μg/mL
Summary of the method: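 Read-out is the lowest peptide concentration showing no growth after an overnight standing culture at 37 °C. Two-fold serial dilutions of 95%-pure peptide were tested against M. haemolytica ATCC 33393 at OD 6×10^−4 in cation-adjusted MH broth.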

C. albicans MYA-2876 = assay: MIC, YPD broth; assay type: cell-based, Candida albicans; conditions: Table 8
Summary of the method: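 Yeast cells were diluted in YPD broth, and 180 μl aliquots were mixed with 20 μl of peptide from 2-fold serial dilutions in flat-bottom 96-well microtitre plates. Wells receiving 20 μl sterile water served as controls. After standing incubation overnight at 37° C, the MIC was taken as the lowest peptide concentration with no visible microbial growth.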

[9] = test system: Candida duobushaemulonii AR 391; assay: MIC, YPD broth, CDC and FDA AR Candida isolate panel; assay type: cell-based
Summary of the method: (§2)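 Peptides of 95% purity were tested as 2-fold dilution series against yeast diluted to an optical density of […]. Cultures stood overnight at 37° C, with sterile water as control.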

[10] = test system: Candida duobushaemulonii AR 392; assay: as above; assay type: cell-based
Summary of the method: as §2

[11] = test system: Candida duobushaemulonii AR 394; assay: as above; assay type: cell-based
Summary of the method: as §2

[12] = test system: Candida haemulonii AR 393; assay: as above; assay type: cell-based; conditions: Table 9 below the line: only 200 or 100 μg/mL tested; values reported as 100 are ≤100 μg/mL
Summary of the method: as §2

[13] = test system: Candida haemulonii AR 395; assay: as above; assay type: cell-based; conditions: Table 9 below the line: only 200 or 100 μg/mL tested; values reported as 100 are ≤100 μg/mL
Summary of the method: as §2

Candida krusei AR 397 = assay: as above; assay type: cell-based
Summary of the method: as §2

[14] = test system: Candida lusitaniae AR 398; assay: as above; assay type: cell-based
Summary of the method: as §2

Kodamae ohmeri AR 396 = assay: as above; assay type: cell-based
Summary of the method: as §2

[15] = test system: Saccharomyces cerevisiae AR 399; assay: as above; assay type: cell-based
Summary of the method: as §2

[16] = test system: Saccharomyces cerevisiae AR 400; assay: as above; assay type: cell-based
Summary of the method: as §2

[17] = Circular dichroism spectroscopy; assay type: physicochemical; conditions: CD, 50% (v/v) TFE
Text: The δ-toxins and the PSMs are characterized as α-helical peptides that form amyloid fibers^48. Although the propensity of individual peptides to form amyloids is correlated to their cytotoxicity^49, the amyloid form is not directly implicated in cell membrane disruption^50. […] CD spectroscopy was used to investigate the secondary structure of a subset of peptides within the collection (FIG. 4A, Table 5). The STIP variants adopted α-helical forms in 50% (v/v) trifluoroethanol (TFE), though unlike the full-length S. auricularis δ-toxin, they were unstructured in water. […] Specifically, peptides characterized by the greatest and least α-helical content in TFE had MICs above the highest tested threshold.
Circular dichroism spectroscopy. Peptides were dissolved in water at concentrations between 0.3 and 0.5 mg/mL. CD spectra were recorded on an Applied Photophysics Chirascan Plus CD spectrophotometer at room temperature in a 0.1 cm path-length quartz cuvette. Spectra were recorded from 180 to 260 nm.

C. albicans Y537 = assay: MIC, YPD broth; assay type: cell-based, Candida albicans; conditions: Table 8
[18] = Table 9 below the line: only 200 or 100 μg/mL tested, values reported as 100 are ≤100 μg/mL
[19] = Table 9 top part: titrations from 1.56 to 100 μg/mL

Substance | MIC S. aureus ATCC 29213 (S. aureus ATCC 29213) [µg/mL] | MIC S. aureus ATCC 33592 (III) [1] [µg/mL] | MIC S. aureus ATCC BAA 1683 (IV) [2] | MIC S. aureus ATCC BAA 2094 (V) [3] [µg/mL] | MIC S. aureus ATCC BAA 2313 (XI) [4] [µg/mL] | MIC S. aureus ATCC BAA 41 (II) [5] [µg/mL] | MIC S. aureus ATCC BAA 42 (VI) [6] [µg/mL] | MIC S. aureus ATCC BAA 44 (I) [7] [µg/mL] | MIC (μg/mL) M. haemolytica [8] [µg/mL] | MIC C. albicans MYA-2876 (C. albicans MYA-2876) | MIC (μg/mL) Candida duobushaemulonii AR 391 [9, 18] | MIC (μg/mL) Candida duobushaemulonii AR 392 [10, 18] | MIC (μg/mL) Candida duobushaemulonii AR 394 [11, 18] | MIC (μg/mL) Candida haemulonii AR 393 [12] | MIC (μg/mL) Candida haemulonii AR 395 [13] | MIC (μg/mL) Candida krusei AR 397 (Candida krusei AR 397; [18]) | MIC (μg/mL) Candida lusitaniae AR 398 [14, 18] | MIC (μg/mL) Kodamae ohmeri AR 396 (Kodamae ohmeri AR 396; [18]) | MIC (μg/mL) Saccharomyces cerevisiae AR 399 [15, 18] | MIC (μg/mL) Saccharomyces cerevisiae AR 400 [16, 18] [µg/mL] | other results
TVKGLVKWILATVKKFA [STIP3-16, TVKGLVKWILATVKKFA] | 100 | 50 | > (no inhibition was observed at the highest concentration of peptide tested: 100 μg/mL for the STIP3 variants) | 100 | 100 | 50 | 50 | 100 | 6.25 | 12.5 µg/mL | > (values below the line were determined using two concentrations of peptide 200 or 100 μg/mL) | > (values below the line were determined using two concentrations of peptide 200 or 100 μg/mL) | > (values below the line were determined using two concentrations of peptide 200 or 100 μg/mL) | > (values below the line were determined using two concentrations of peptide 200 or 100 μg/mL) | > (values below the line were determined using two concentrations of peptide 200 or 100 μg/mL) | ≤ 100 µg/mL | ≤ 100 µg/mL | ≤ 100 µg/mL | ≤ 100 µg/mL | ≤ 100 | α helicity (%) [17]: 45%
TVKGLVKWILNVVKKFA [STIP3-14, TVKGLVKWILNVVKKFA] | 25 | 12.5 | 25 µg/mL | 50 | 12.5 | 25 | 25 | 25 | – | 12.5 µg/mL | – | – | – | – | – | – | – | – | – | – | MIC C. albicans Y537 (C. albicans Y537): 50 µg/mL; MIC (μg/mL) Candida duobushaemulonii AR 391 [9, 19]: 50 µg/mL; MIC (μg/mL) Candida duobushaemulonii AR 392 [10, 19]: 50 µg/mL; MIC (μg/mL) Candida duobushaemulonii AR 394 [11, 19]: 100 µg/mL; MIC (μg/mL) Candida krusei AR 397 (Candida krusei AR 397; [19]): 12.5 µg/mL; MIC (μg/mL) Candida lusitaniae AR 398 [14, 19]: 6.25 µg/mL; MIC (μg/mL) Kodamae ohmeri AR 396 (Kodamae ohmeri AR 396; [19]): 25 µg/mL; MIC (μg/mL) Saccharomyces cerevisiae AR 399 [15, 19]: 25 µg/mL; MIC (μg/mL) Saccharomyces cerevisiae AR 400 [16, 19]: 6.25 µg/mL; α helicity (%) [17]: 64%
TVGGLVKWILDTVKKFA-NH2 [STIP3-27, TVGGLVKWILDTVKKFA-NH2] | 50 | 50 | 25 µg/mL | 25 | 50 | 25 | 25 | 25 | 25 | 25 µg/mL | > (values below the line were determined using two concentrations of peptide 200 or 100 μg/mL) | > (values below the line were determined using two concentrations of peptide 200 or 100 μg/mL) | > (values below the line were determined using two concentrations of peptide 200 or 100 μg/mL) | > (values below the line were determined using two concentrations of peptide 200 or 100 μg/mL) | > (values below the line were determined using two concentrations of peptide 200 or 100 μg/mL) | ≤ 100 µg/mL | ≤ 100 µg/mL | ≤ 100 µg/mL | ≤ 100 µg/mL | ≤ 100 | MIC C. albicans Y537 (C. albicans Y537): 50 µg/mL
TVGGLVKWILKTVKKFA [STIP3-3, TVGGLVKWILKTVKKFA] | 25 | 25 | 50 µg/mL | 25 | 50 | 25 | 50 | 25 | 12.5 | 25 µg/mL | ≤ 100 µg/mL | > (values below the line were determined using two concentrations of peptide 200 or 100 μg/mL) | > (values below the line were determined using two concentrations of peptide 200 or 100 μg/mL) | > (values below the line were determined using two concentrations of peptide 200 or 100 μg/mL) | > (values below the line were determined using two concentrations of peptide 200 or 100 μg/mL) | ≤ 100 µg/mL | ≤ 100 µg/mL | ≤ 100 µg/mL | ≤ 100 µg/mL | ≤ 100 | MIC C. albicans Y537 (C. albicans Y537): 50 µg/mL
TVRALVKWILRTVAKFA [STIP3-20, TVRALVKWILRTVAKFA] | 25 | 25 | 25 µg/mL | 25 | 50 | 12.5 | 25 | 25 | 25 | > (> symbol indicates that no inhibition was observed at the highest concentration of peptide tested: 100 μg/mL) | > (values below the line were determined using two concentrations of peptide 200 or 100 μg/mL) | > (values below the line were determined using two concentrations of peptide 200 or 100 μg/mL) | > (values below the line were determined using two concentrations of peptide 200 or 100 μg/mL) | > (values below the line were determined using two concentrations of peptide 200 or 100 μg/mL) | > (values below the line were determined using two concentrations of peptide 200 or 100 μg/mL) | > (values below the line were determined using two concentrations of peptide 200 or 100 μg/mL) | > (values below the line were determined using two concentrations of peptide 200 or 100 μg/mL) | > (values below the line were determined using two concentrations of peptide 200 or 100 μg/mL) | > (values below the line were determined using two concentrations of peptide 200 or 100 μg/mL) | 200 | MIC C. albicans Y537 (C. albicans Y537): > (> symbol indicates that no inhibition was observed at the highest concentration of peptide tested: 100 μg/mL)
